Key:
Experiment in all cases: combination Emax (second highest fraction inhibited in the dose matrix, 72 h); higher = more inhibition; extreme values may be limits of the assay
[1] = system: SW1710 (Bladder Carcinoma)
Method in brief: (§1)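 After 24 hours at 37°C and 5% CO2 in 1536-well plates, cells in DMEM/F12 or RPMI plus 10% FBS received two-drug dose matrices for 72 hours. Viability came from CellTiter-Glo 2.0 luminescence and was scaled as inhibition, anchored at 0 by vehicle wells and at 1 by blank wells. Combination Emax is taken as the second-highest inhibition in the matrix, and Bliss excess as the observed combination effect less EA + EB − EA·EB, with EA and EB the single-agent effects.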

[2] = system: BPH-1 (Non-Cancerous)
Method in brief: as §1

[3] = system: HuH-7 (Hepatocellular Carcinoma)
Method in brief: as §1

[4] = system: YAPC (Pancreatic Carcinoma)
Method in brief: as §1

[5] = system: WSU-NHL (B-Cell Non-Hodgkin's Lymphoma)
Method in brief: as §1

[6] = system: LS-123 (Colorectal Carcinoma)
Method in brief: as §1

[7] = system: KS-1 (Glioblastoma)
Method in brief: as §1

[8] = system: OV-56 (Ovarian Carcinoma)
Method in brief: as §1

[9] = system: NCI-H1568 (Lung Adenocarcinoma)
Method in brief: as §1

[10] = system: MPP-89 (Mesothelioma)
Method in brief: as §1

[11] = system: LOXIMVI (Melanoma)
Method in brief: as §1

[12] = system: SNU-449 (Hepatocellular Carcinoma)
Method in brief: as §1

[13] = system: BFTC-909 (Kidney Carcinoma)
Method in brief: as §1

[14] = system: KMRC-20 (Kidney Carcinoma)
Method in brief: as §1

[15] = system: CAL-33 (Oral Cavity Carcinoma)
Method in brief: as §1

[16] = system: HH (T-Cell Non-Hodgkin's Lymphoma)
Method in brief: as §1

[17] = system: ALL-PO (B-Lymphoblastic Leukemia)
Method in brief: as §1

[18] = system: GAMG (Glioblastoma)
Method in brief: as §1

[19] = system: KYAE-1 (Esophageal Adenocarcinoma)
Method in brief: as §1

[20] = system: BE-13 (T-Lymphoblastic Leukemia)
Method in brief: as §1

SMILES | combination Emax [1] | combination Emax [2] | combination Emax [3] | combination Emax [4] | combination Emax [5] | combination Emax [6] | combination Emax [7] | combination Emax [8] | combination Emax [9] | combination Emax [10] | combination Emax [11] | combination Emax [12] | combination Emax [13] | combination Emax [14] | combination Emax [15] | combination Emax [16] | combination Emax [17] | combination Emax [18] | combination Emax [19] | combination Emax [20]
COc1nnc2ccc(N3CCC(c4ccc(OCCN5CCN(C)C(=O)[C@H]5C)cc4)CC3)nn12 [AZD5153] + C[C@@H]1COCCN1C2=NC(=NC(=C2)C3(CC3)[S@](=N)(=O)C)C4=C5C=CNC5=NC=C4 [AZD6738] (first compound max 1 µM, 7x7, partner max 10 µM) | 0.396 | 0.831 | 0.724 | 0.529 | 0.99 | 0.59 | 0.69 | 0.793 | 0.476 | 0.604 | 0.97 | 0.166 | 0.876 | 0.775 | 0.839 | 0.491 | 0.987 | 0.682 | 0.263 | 0.985
COc1cccc2c1C(=O)c1c(O)c3c(c(O)c1C2=O)C[C@@](O)(C(=O)CO)C[C@@H]3O[C@H]1C[C@H](N)[C@H](O)[C@H](C)O1 [Doxorubicin] + Cc1cc2ncnn2cc1Nc1ncc2c(n1)n(C1CCOCC1)c(=O)n2C [AZD7648] (first compound max 1 µM, 7x7, partner max 10 µM) | 0.665 | 0.951 | 0.23 | 0.381 | 1 | 0.87 | 0.619 | 0.711 | 0.197 | 0.734 | 0.952 | 0.173 | 0.853 | 0.524 | 0.873 | 0.297 | 1 | 0.945 | 0.879 | 0.965
NC1(C(=O)N[C@@H](CCO)c2ccc(Cl)cc2)CCN(c2ncnc3[nH]ccc23)CC1 [Capivasertib] + Cn1cnc2c(F)c(Nc3ccc(Br)cc3Cl)c(C(=O)NOCCO)cc21 [Selumetinib] (first compound max 10 µM, 7x7, partner max 10 µM) | 0.409 | 0.716 | 0.45 | 0.346 | 0.92 | 0.555 | 0.551 | 0.398 | 0.229 | 0.386 | 0.782 | 0.205 | 0.734 | 0.392 | 0.789 | 0.246 | 0.726 | 0.653 | 0.13 | 0.276
CCN(CCO)CCCOc1ccc2c(Nc3cc(CC(=O)Nc4cccc(F)c4)[nH]n3)ncnc2c1 [AZD2811] + O=C(c1cc(Cc2n[nH]c(=O)c3ccccc23)ccc1F)N1CCN(C(=O)C2CC2)CC1 [Olaparib] (first compound max 1 µM, 7x7, partner max 10 µM) | 0.185 | 0.566 | 0.174 | 0.147 | 0.931 | 0.301 | 0.363 | 0.179 | 0.164 | 0.189 | 0.336 | 0.205 | 0.221 | 0.24 | 0.732 | 0.0537 | 0.975 | 0.399 | 0.208 | 0.824
COc1nnc2ccc(N3CCC(c4ccc(OCCN5CCN(C)C(=O)[C@H]5C)cc4)CC3)nn12 [AZD5153] + C=CCn1c(=O)c2cnc(Nc3ccc(N4CCN(C)CC4)cc3)nc2n1-c1cccc(C(C)(C)O)n1 [AZD1775] (first compound max 1 µM, partner max 1 µM) | 0.36 | 0.88 | 0.682 | 0.461 | 0.952 | 0.546 | 0.686 | 0.279 | 0.438 | 0.482 | 0.892 | 0.249 | 0.702 | 0.694 | 0.724 | 0.47 | 0.995 | 0.665 | 0.0798 | 1
Cc1c2c(nn1C)CSCc1cc(n(C)n1)CSc1cc(c3ccccc3c1)OCCCc1c(C(=O)O)n(C)c3c-2c(Cl)ccc13 [AZD5991] + C[C@@H](Nc1cc(F)cc(F)c1)c1cc(C(=O)N(C)C)cc2c(=O)cc(N3CCOCC3)oc12 [AZD8186] (first compound max 1 µM, 7x7, partner max 3 µM) | 0.307 | 0.461 | 0.208 | 0.182 | 0.987 | 0.336 | 0.416 | 0.212 | 0.225 | 0.22 | 0.268 | 0.216 | 0.3 | 0.262 | 0.28 | 0.87 | 1 | 0.585 | 0.209 | 0.384
C=CCn1c(=O)c2cnc(Nc3ccc(N4CCN(C)CC4)cc3)nc2n1-c1cccc(C(C)(C)O)n1 [AZD1775] + C1CN(CCC1(C(=O)N[C@@H](CCO)C2=CC=C(C=C2)Cl)N)C3=NC=NC4=C3C=CN4 [Capivasertib] (first compound max 3 µM, partner max 3 µM) | 0.475 | 0.929 | 0.471 | 0.591 | 1 | 0.636 | 0.589 | 0.389 | 0.765 | 0.685 | 0.793 | 0.271 | 0.922 | 0.711 | 0.929 | 0.567 | 0.754 | 0.829 | 0.579 | 0.968

Source: the supplement of paper PMC11061612
